Results as given in patent US20260201008A1, “SECRETIN-DERIVED GLP1R SELECTIVE AGONISTS” (GUBRA A/S, priority 2023, published 2026).
Like-named read-outs stand apart in the source and are kept apart here. Numbered stars: 1 amine (or outer) side, 2 acyl side, 3 side chain; on linkers, the order of the positions; unused ones are H or OH. Square brackets hold non-standard residues; d marks the D form. Side chains are listed from the residue outwards. Peptide text beside a SMILES is read from it. * marks the point of attachment. C20 diacid = O=C(O)CCCCCCCCCCCCCCCCCCC(=O)*; γGlu = O=C(O)[C@H](CCC(=O)[*:2])N[*:1]; AEEA = NCCOCCOCC(=O)O; Aib = CC(C)(N)C(=O)O

Experiments:
[1] = Fibril formation of crude library peptides (Thioflavin T); format: physicochemical; design: key: average ThT fluorescence emission at 480 nm (ex 450 nm), raw units; conditions: Physical stability of peptides
Outline: (§1)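 Turbidity is the absorbance at 600 nm, taken before heating. Fibril signal is the mean ThT emission at 480 nm (450 nm excitation), read every 10 min over 72 h at 40° C with 700 rpm shaking between reads. Peptides at 267 μM, pH 4.0 acetate or pH 7.0 phosphate buffer (50 mM), 4 μM ThT final.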

[2] = Turbidity of crude library peptides (absorbance at 600 nm); format: physicochemical; conditions: Physical stability of peptides
Outline: as §1

SCTR = SCTR (Homo sapiens, UniProt P47872); assay: hSCTR potency, cAMP accumulation in CHO-K1 cells stably overexpressing hSCTR; format: cell-based; design: alternatively Euroscreen ES-712-AF; FAST-0161L; host or cells: CHO-K1; conditions: cAMP accumulation, CHO-K1 cells overexpressing hSCTR
Chain of SCTR (P47872 23-440): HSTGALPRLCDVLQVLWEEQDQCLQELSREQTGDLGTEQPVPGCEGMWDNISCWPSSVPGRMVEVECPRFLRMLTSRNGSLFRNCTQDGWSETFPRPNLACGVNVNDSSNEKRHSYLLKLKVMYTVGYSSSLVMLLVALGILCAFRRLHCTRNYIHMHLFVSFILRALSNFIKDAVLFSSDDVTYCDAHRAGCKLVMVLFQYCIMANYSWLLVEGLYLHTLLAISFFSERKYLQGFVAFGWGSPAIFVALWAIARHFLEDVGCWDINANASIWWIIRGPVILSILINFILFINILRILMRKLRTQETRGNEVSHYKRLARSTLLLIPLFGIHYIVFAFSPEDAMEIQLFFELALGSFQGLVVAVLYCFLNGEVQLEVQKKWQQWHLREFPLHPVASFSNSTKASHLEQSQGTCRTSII
Outline: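 EC50 derived from variable-slope nonlinear regression on 11-point, 3-fold series run in duplicate (crude peptides: 5 points, 10-fold, n=1). Compound stimulation lasted 30 min at room temperature in casein/IBMX-containing DPBS (0.05%, 0.5 mM), 2000 cells/well; cAMP detected by time-resolved FRET after one hour.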

GLP1R = GLP1R (Homo sapiens, UniProt P43220); assay: hGLP1R potency, cAMP accumulation in CHO-K1 cells stably overexpressing hGLP1R; format: cell-based; design: host or cells: CHO-K1; conditions: for EC50: cAMP accumulation, CHO-K1 cells overexpressing hGLP1R; for SCTR EC50/GLP1R EC50 ratio: selectivity for hGLP1R over hSCTR, cAMP accumulation in CHO-K1 cells; for Selectivity: SCTR EC50/GLP1R EC50 ratio
Chain of GLP1R (P43220 24-463): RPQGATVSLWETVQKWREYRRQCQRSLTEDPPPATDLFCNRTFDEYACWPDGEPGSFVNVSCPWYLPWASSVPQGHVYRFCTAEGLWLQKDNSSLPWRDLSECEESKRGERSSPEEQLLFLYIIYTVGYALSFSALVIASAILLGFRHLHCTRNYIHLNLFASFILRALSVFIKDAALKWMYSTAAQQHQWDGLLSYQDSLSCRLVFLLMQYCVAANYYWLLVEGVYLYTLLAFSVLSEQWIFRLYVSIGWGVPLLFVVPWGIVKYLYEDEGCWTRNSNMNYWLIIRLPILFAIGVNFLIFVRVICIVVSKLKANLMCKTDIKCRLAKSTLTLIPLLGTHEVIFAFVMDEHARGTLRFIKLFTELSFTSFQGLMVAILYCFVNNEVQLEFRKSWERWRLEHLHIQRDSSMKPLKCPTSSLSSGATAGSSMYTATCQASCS
Outline: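 EC50 derives from variable-slope nonlinear regression of cAMP HTRF signal, with purified peptides tested as 11 three-fold dilutions in duplicate. Assay: hGLP1R-overexpressing CHO-K1 cells, 0.5 mM IBMX, 0.05% casein in DPBS, 30 min room-temperature stimulation, GLP-1(7-36) as reference agonist.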

[3] = read-out: hSCTR pEC50 (converted)
[4] = read-out: hGLP1R pEC50 (converted)
[5] = read-out: pEC50 hSCTR (converted)
[6] = read-out: pEC50 hGLPR1 (converted)

Row | SMILES | Fibril formation [1] | Turbidity (pH 7) [2] | EC50 (SCTR; [3]) [nM] | EC50 (GLP1R; [4]) [nM] | SCTR EC50/GLP1R EC50 ratio (GLP1R) | EC50 (SCTR; [5]) [nM] | Selectivity (GLP1R) | EC50 (GLP1R; [6]) [nM]
1 | CC(C)C[C@H](NC(=O)[C@H](Cc1ccccc1)NC(=O)[C@H](CCCNC(=N)N)NC(=O)[C@H](CCC(N)=O)NC(=O)[C@H](CC(C)C)NC(=O)C(C)(C)NC(=O)[C@H](C)NC(=O)[C@H](CCC(=O)O)NC(=O)[C@H](CCC(=O)O)NC(=O)[C@H](CCCCNC(=O)COCCOCCNC(=O)COCCOCCNC(=O)CC[C@H](NC(=O)CCCCCCCCCCCCCCCCCCC(=O)O)C(=O)O)NC(=O)[C@H](CC(C)C)NC(=O)[C@@H](NC(=O)[C@H](CO)NC(=O)[C@@H](NC(=O)[C@H](CC(=O)O)NC(=O)[C@H](CO)NC(=O)[C@@H](NC(=O)[C@H](Cc1ccccc1)NC(=O)[C@@H](NC(=O)CNC(=O)[C@H](CCC(=O)O)NC(=O)C(C)(C)NC(=O)[C@@H](N)Cc1c[nH]cn1)[C@@H](C)O)[C@@H](C)O)C(C)C)[C@@H](C)O)C(=O)N[C@@H](CCC(=O)O)C(=O)N[C@@H](Cc1c[nH]cn1)C(=O)N[C@@H](CC(C)C)C(=O)N[C@H](C(N)=O)C(C)C [compound 165] (H-H[Aib]EGTFTSDVSTLK([AEEA-AEEA-γGlu-C20 diacid])EEA[Aib]LQRFLEHLV-NH2) | 4038 | 0.08 | 10 | 0.00631 | 1693 |  |  | 
2 | CC(C)C[C@H](NC(=O)[C@H](Cc1ccccc1)NC(=O)[C@H](CCCNC(=N)N)NC(=O)[C@H](CCC(N)=O)NC(=O)[C@H](C)NC(=O)[C@H](C)NC(=O)[C@H](C)NC(=O)[C@H](CCC(=O)O)NC(=O)[C@H](CCC(=O)O)NC(=O)[C@H](CCCCNC(=O)COCCOCCNC(=O)COCCOCCNC(=O)CC[C@H](NC(=O)CCCCCCCCCCCCCCCCCCC(=O)O)C(=O)O)NC(=O)[C@H](CC(C)C)NC(=O)[C@@H](NC(=O)[C@H](CO)NC(=O)[C@@H](NC(=O)[C@H](CC(=O)O)NC(=O)[C@H](CO)NC(=O)[C@@H](NC(=O)[C@H](Cc1ccccc1)NC(=O)[C@@H](NC(=O)CNC(=O)[C@H](CCC(=O)O)NC(=O)C(C)(C)NC(=O)[C@@H](N)Cc1c[nH]cn1)[C@@H](C)O)[C@@H](C)O)C(C)C)[C@@H](C)O)C(=O)N[C@@H](CCC(=O)O)C(=O)N[C@@H](Cc1c[nH]cn1)C(=O)N[C@@H](CC(C)C)C(=O)N[C@H](C(N)=O)C(C)C [compound 96] (H-H[Aib]EGTFTSDVSTLK([AEEA-AEEA-γGlu-C20 diacid])EEAAAQRFLEHLV-NH2) | 8019 | 0.09 | 398 | 0.0126 | 31579 |  |  | 
3 | CC[C@H](C)[C@H](NC(=O)[C@H](Cc1ccccc1)NC(=O)[C@H](CCCNC(=N)N)NC(=O)[C@H](CCC(N)=O)NC(=O)[C@H](CC(C)C)NC(=O)[C@H](C)NC(=O)[C@H](C)NC(=O)CNC(=O)[C@H](CCC(=O)O)NC(=O)[C@H](CC(C)C)NC(=O)[C@H](CC(C)C)NC(=O)[C@H](CCCNC(=N)N)NC(=O)[C@H](CO)NC(=O)C(C)(C)NC(=O)[C@H](CC(=O)O)NC(=O)[C@H](CO)NC(=O)[C@@H](NC(=O)[C@H](Cc1ccccc1)NC(=O)[C@@H](NC(=O)CNC(=O)[C@H](CCC(=O)O)NC(=O)C(C)(C)NC(=O)[C@@H](N)Cc1c[nH]cn1)[C@@H](C)O)[C@@H](C)O)C(=O)N[C@@H](CCC(N)=O)C(=O)N[C@@H](Cc1c[nH]c2ccccc12)C(=O)N[C@@H](CC(C)C)C(=O)N[C@H](C(N)=O)C(C)C [compound 104] (H-H[Aib]EGTFTSD[Aib]SRLLEGAALQRFIQWLV-NH2) | 1348 | 0.12 | 316 | 0.126 | 2902 |  |  | 
4 | CC(C)C[C@H](NC(=O)[C@H](Cc1ccccc1)NC(=O)[C@H](CCCNC(=N)N)NC(=O)[C@H](CCC(N)=O)NC(=O)[C@H](CC(C)C)NC(=O)C(C)(C)NC(=O)[C@H](C)NC(=O)[C@H](CCC(=O)O)NC(=O)[C@H](CCC(=O)O)NC(=O)[C@H](CCCCNC(=O)COCCOCCNC(=O)COCCOCCNC(=O)CC[C@H](NC(=O)CCCCCCCCCCCCCCCCCCC(=O)O)C(=O)O)NC(=O)[C@H](CC(C)C)NC(=O)[C@H](Cc1ccc(O)cc1)NC(=O)[C@H](CO)NC(=O)C(C)(C)NC(=O)[C@H](CC(=O)O)NC(=O)[C@H](CO)NC(=O)[C@@H](NC(=O)[C@H](Cc1ccccc1)NC(=O)[C@@H](NC(=O)CNC(=O)[C@H](CCC(=O)O)NC(=O)C(C)(C)NC(=O)[C@@H](N)Cc1c[nH]cn1)[C@@H](C)O)[C@@H](C)O)C(=O)N[C@@H](CCC(=O)O)C(=O)N[C@@H](Cc1c[nH]cn1)C(=O)N[C@@H](CC(C)C)C(=O)N[C@H](C(N)=O)C(C)C [compound 103] (H-H[Aib]EGTFTSD[Aib]SYLK([AEEA-AEEA-γGlu-C20 diacid])EEA[Aib]LQRFLEHLV-NH2) | 3646 | 0.08 | 10000 | 0.00794 | 1181272 |  |  | 
5 | CC(C)C[C@H](NC(=O)[C@H](Cc1ccccc1)NC(=O)[C@H](CCCNC(=N)N)NC(=O)[C@H](CCC(N)=O)NC(=O)[C@@H](NC(=O)[C@H](C)NC(=O)[C@H](C)NC(=O)[C@H](CCC(=O)O)NC(=O)[C@H](CCC(=O)O)NC(=O)[C@H](CCCCNC(=O)COCCOCCNC(=O)COCCOCCNC(=O)CC[C@H](NC(=O)CCCCCCCCCCCCCCCCCCC(=O)O)C(=O)O)NC(=O)[C@H](CC(C)C)NC(=O)[C@H](Cc1ccc(O)cc1)NC(=O)[C@H](CO)NC(=O)[C@@H](NC(=O)[C@H](CC(=O)O)NC(=O)[C@H](CO)NC(=O)[C@@H](NC(=O)[C@H](Cc1ccccc1)NC(=O)[C@@H](NC(=O)CNC(=O)[C@H](CCC(=O)O)NC(=O)C(C)(C)NC(=O)[C@@H](N)Cc1c[nH]cn1)[C@@H](C)O)[C@@H](C)O)C(C)C)[C@@H](C)O)C(=O)N[C@@H](CCC(=O)O)C(=O)N[C@@H](Cc1c[nH]cn1)C(=O)N[C@@H](CC(C)C)C(=O)N[C@H](C(N)=O)C(C)C [compound 30] (H-H[Aib]EGTFTSDVSYLK([AEEA-AEEA-γGlu-C20 diacid])EEAATQRFLEHLV-NH2) | 6899 | 0.08 |  |  |  | 251 | 22387 | 0.0126
6 | CC(C)C[C@H](NC(=O)[C@H](Cc1ccccc1)NC(=O)[C@H](CCCNC(=N)N)NC(=O)[C@H](CCC(N)=O)NC(=O)C(C)(C)NC(=O)[C@H](C)NC(=O)[C@H](C)NC(=O)[C@@H](NC(=O)[C@H](CCC(=O)O)NC(=O)[C@H](CCCCNC(=O)COCCOCCNC(=O)COCCOCCNC(=O)CC[C@H](NC(=O)CCCCCCCCCCCCCCCCCCC(=O)O)C(=O)O)NC(=O)[C@H](CC(C)C)NC(=O)[C@@H](NC(=O)[C@H](CO)NC(=O)[C@@H](NC(=O)[C@H](CC(=O)O)NC(=O)[C@H](CO)NC(=O)[C@@H](NC(=O)[C@H](Cc1ccccc1)NC(=O)[C@@H](NC(=O)CNC(=O)[C@H](CCC(=O)O)NC(=O)C(C)(C)NC(=O)[C@@H](N)Cc1c[nH]cn1)[C@@H](C)O)[C@@H](C)O)C(C)C)C(C)C)[C@@H](C)O)C(=O)N[C@@H](CCC(=O)O)C(=O)N[C@@H](Cc1c[nH]cn1)C(=O)N[C@@H](CC(C)C)C(=O)N[C@H](C(N)=O)C(C)C [compound 101] (H-H[Aib]EGTFTSDVSVLK([AEEA-AEEA-γGlu-C20 diacid])ETAA[Aib]QRFLEHLV-NH2) | 8172 | 0.08 | 1000 | 0.2 | 5030 |  |  | 
7 | CC(C)C[C@H](NC(=O)[C@H](Cc1ccccc1)NC(=O)[C@H](CCCNC(=N)N)NC(=O)[C@H](CCC(N)=O)NC(=O)[C@@H](NC(=O)[C@H](C)NC(=O)[C@H](C)NC(=O)C(C)(C)NC(=O)[C@H](CCC(=O)O)NC(=O)[C@H](CCCCNC(=O)COCCOCCNC(=O)COCCOCCNC(=O)CC[C@H](NC(=O)CCCCCCCCCCCCCCCCCCC(=O)O)C(=O)O)NC(=O)[C@H](CC(C)C)NC(=O)[C@@H](NC(=O)[C@H](CO)NC(=O)[C@@H](NC(=O)[C@H](CC(=O)O)NC(=O)[C@H](CO)NC(=O)[C@@H](NC(=O)[C@H](Cc1ccccc1)NC(=O)[C@@H](NC(=O)CNC(=O)[C@H](CCC(=O)O)NC(=O)C(C)(C)NC(=O)[C@@H](N)Cc1c[nH]cn1)[C@@H](C)O)[C@@H](C)O)C(C)C)C(C)C)[C@@H](C)O)C(=O)N[C@@H](CCC(=O)O)C(=O)N[C@@H](Cc1c[nH]cn1)C(=O)N[C@@H](CC(C)C)C(=O)N[C@H](C(N)=O)C(C)C [compound 49] (H-H[Aib]EGTFTSDVSVLK([AEEA-AEEA-γGlu-C20 diacid])E[Aib]AATQRFLEHLV-NH2) | 11371 | 0.08 |  |  |  | 126 | 5429 | 0.02
